“And” between values parts separate entries of the source, which are not always exact repeats. Equal values may be shown once.
Legend:
Nox2 [1] = molecular target: T1, Nox2 (Homo sapiens, UniProt P04839); assay: ROS (H2O2) generation in whole COS-Nox2 cells, Amplex Red assay; type: cell-based; settings: for Nox2 inhibitory activity: Table 2; for IC50: whole COS-Nox2 cells stimulated with 5 μM PMA, Amplex Red; for Selectivity for Nox2 over other Nox isoforms: cell-based assays for each Nox system
T1 construct: expressed in transfected cells
T1 sequence (P04839 2-570 limits assumed): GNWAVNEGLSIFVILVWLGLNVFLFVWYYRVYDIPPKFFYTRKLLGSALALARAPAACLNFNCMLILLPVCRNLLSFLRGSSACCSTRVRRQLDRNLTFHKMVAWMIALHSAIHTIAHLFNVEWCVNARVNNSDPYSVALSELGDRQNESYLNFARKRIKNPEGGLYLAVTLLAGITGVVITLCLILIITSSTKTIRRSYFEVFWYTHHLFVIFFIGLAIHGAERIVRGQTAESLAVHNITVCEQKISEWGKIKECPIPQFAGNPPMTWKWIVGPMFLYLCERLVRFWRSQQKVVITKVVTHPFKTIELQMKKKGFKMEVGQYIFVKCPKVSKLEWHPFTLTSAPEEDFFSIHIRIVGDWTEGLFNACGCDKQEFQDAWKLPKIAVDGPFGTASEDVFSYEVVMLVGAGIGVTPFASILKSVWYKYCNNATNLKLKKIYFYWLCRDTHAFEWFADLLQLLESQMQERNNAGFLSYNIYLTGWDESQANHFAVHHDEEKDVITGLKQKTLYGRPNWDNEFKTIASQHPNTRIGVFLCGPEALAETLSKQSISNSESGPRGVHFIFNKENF
From the text: (§1) All cell culture reagents were obtained from Invitrogen, unless indicated. COS-22 (COS-7 cells stably expressing human p22^phox) and COS-Nox2 (a.k.a. COS-phox) cells (COS-7 cells stably expressing human p22^phox, Nox2, p47^phox and p67^phox) were kindly provided by Dr. Mary C. Dinauer (Indiana University, School of Medicine) (Price et al., Blood, 2002, 99:2653-2661). COS-22 cells were maintained in Dulbecco's Modified Eagle Medium (DMEM) with 4.5 g/L glucose, L-glutamine and sodium pyruvate containing 10% heat-inactivated fetal bovine serum (FBS), 100 units/ml penicillin and 100 μg/ml streptomycin (complete media) supplemented with 1.8 mg/ml G418 (Calbiochem/EMB Bioscience, Gibbstown, N.J.). COS-Nox2 cells were maintained in complete media supplemented with 1.8 mg/mL G418, 1 μg/mL puromycin (Sigma, St Louis, Mo.) and 0.2 mg/mL hygromycin B (Invitrogen, Carlsbad, Calif.). HEK-Nox5 cells were kindly provided by Dr. David Fulton (Georgia Health Sciences University) and maintained in complete media.
H2O2 production was quantified in intact COS-Nox4 cells by Amplex® Red. Briefly, COS-Nox4 cells (5×10^4 cells/ml) were re-plated into 384-well plate in assay buffer (25 mM Hepes, pH 7.4, containing 0.12 M NaCl, 3 mM KCl, 1 mM MgCl2). The cells were incubated in the presence or absence of drugs at 37° C. in assay buffer supplemented with 0.1 mM Amplex® Red, and 0.32 U/ml of horse radish peroxidase (HRP) for 15 min. Fluorescence measurements were made using a Biotek Synergy 4 Hybrid Multi-Mode Microplate Reader with a 530/25-excitation and a 590/35-emission filter. The reaction was monitored at 37° C. for 1 h. A standard curve of known H2O2 concentrations was included on each plate. Nox4 activity was obtained by calculating the rate of H2O2 production as RFU/min and then subtracting the equivalent value given by non-transfected COS-22 cells. Similarly, H2O2 production by Nox2 cells was also measured by Amplex® Red as described above but in the presence of 150 U/mL of SOD and the reaction was initiated by addition of 5 μM PMA. The rate of H2O2 production in this case was calculated as RFU/min after the subtraction of the equivalent value given by non-stimulated cells. Data are expressed as % of vehicle control.
(§2) All data are expressed as means±SEM. IC50 values were determined using the GraphPad Prism software (GraphPad Software, San Diego, Calif.) for non-linear regression three-parameters, with constrain values of 100 and 0 for top and bottom, respectively, and assumes a Hill slope of 1.

Nox2 [2] = molecular target: T1, Nox2; assay: ROS (superoxide) generation in whole COS-Nox2 cells, L-012 chemiluminescence; type: cell-based; settings: for IC50: whole COS-Nox2 cells stimulated with 5 μM PMA; for Activity in primary library screen: screened at 100, 50, 25, and 12.5 μM, COS-Nox2 cells
From the text: as §1
COS-Nox2, COS-Nox1/NOXO1/NOXA1, HEK-Nox5 and COS-22 cells were re-plated in OPTIMEM into 384-well white micro-plates (Greiner-Bio One GmbH, Germany) at a density of 2.5×10^3 cells/well for COS-Nox2 and 5×10^4 cells/well for all others. The cells were incubated at 37° C. in PBS containing […] L-012 for 10 min. Reaction was initiated by addition of 5 μM PMA in the case of Nox2 or 1 μM PMA/0.1 μM Ionomycin in the case of Nox5. Since Nox1 was constitutively active, Nox1-derived O2^•− was assessed by comparison to non-transfected cells (Cos22). Luminescence was quantified over time using a Biotek Synergy 4 Hybrid Multi-Mode Microplate Reader. The specificity of L-012 for O2^•− was confirmed by the addition of SOD (150 U/mL).
as §2
Heterologous Nox1, 2, 4, and 5 cell systems were used as a testing paradigm to identify a probe molecule that inhibits Nox2 selectively over Nox1, 4, and 5. An acceptable probe would also show a lack of activity against XO, which also produces ROS. The latter screen would serve two purposes: (1) to eliminate drugs that inhibit an oxidase of distinct composition; and (2) to preclude agents that directly scavenge ROS. A cell-based primary assay using stable Nox2-transfected COS cells (Price et al., Blood 2002, 99:2653-2661) with L-012 chemiluminescence (Daiber et al., Free Radic. Biol. Med. 2004, 36:101-111) was used as a detection system for O2^•−-generation.

Row | SMILES | Nox2 inhibitory activity (Nox2 [1]) | IC50 (Nox2 [1]) | IC50 (Nox2 [2]) | Selectivity for Nox2 over other Nox isoforms (Nox2 [1]) | Activity in primary library screen (Nox2 [2])
1 | C=C(C)CC1C2c3c(Br)cccc3C(CC2(C)C)N1S(C)(=O)=O (racemic) [Compound 14a, (±)-(1S,4R,9S)-5-Bromo-3,3-dimethyl-9-(2-methylallyl)-10-(methylsulfonyl)-1,2,3,4-tetrahydro-1,4-(epiminomethano)naphthalene] | completely abolished activity | 27 ± 4.7 µM | > 100 µM |  | 
2 | C=C(C)CC1C2c3c(-c4ccc(Cl)c(Cl)c4)cccc3C(CC2(C)C)N1Cc1ccc2c(c1)OCO2 (racemic) [Compound 12b, (±)-(1S,4R,9S)-10-(Benzo[d][1,3]dioxol-5-ylmethyl)-5-(3,4-dichlorophenyl)-3,3-dimethyl-9-(2-methylallyl)-1,2,3,4-tetrahydro-1,4-(epiminomethano)-naphthalene] | inactive | > 100 µM | > 100 µM |  | 
3 | C=C(C)CC1C2c3c(Br)cccc3C(CC2(C)C)N1S(=O)(=O)c1ccc(F)cc1 (racemic) [Compound 14b, (±)-(1S,4R,9S)-5-Bromo-10-((4-fluorophenyl)sulfonyl)-3,3-dimethyl-9-(2-methylallyl)-1,2,3,4-tetrahydro-1,4-(epiminomethano)naphthalene] | completely abolished activity | > 100 µM | > 100 µM |  | 
4 | C=C(C)CC1C2c3c(Br)cccc3C(CC2(C)C)N1Cc1cccs1 (racemic) [Compound 11h, (±)-(1S,4R,9S)-5-Bromo-3,3-dimethyl-9-(2-methylallyl)-10-(thiophen-2-ylmethyl)-1,2,3,4-tetrahydro-1,4-(epiminomethano)naphthalene] |  | 32 ± 1.9 µM | 38 ± 11 µM | specificity for Nox2 over Nox1, 4, and 5 | 
5 | C=C(C)CC1C2c3ccccc3C(CC2(C)C)N1Cc1cccc(F)c1 (racemic) [Compound 11a, (±)-(1S,4R,9S)-10-(3-Fluorobenzyl)-3,3-dimethyl-9-(2-methylallyl)-1,2,3,4-tetrahydro-1,4-(epiminomethano)naphthalene] |  | 30 ± 7.5 µM | 68 ± 33 µM |  | 
6 | C=C(C)CC1NC2CC(C)(C)C1c1c(-c3ccc(Cl)c(Cl)c3)cccc12 (racemic) [Compound 12a, (±)-(1S,4R,9S)-5-(3,4-Dichlorophenyl)-3,3-dimethyl-9-(2-methylallyl)-1,2,3,4-tetrahydro-1,4-(epiminomethano)naphthalene] | comparable | 64 ± 35 µM | 9 ± 0.9 µM | greater selectivity over Nox1 | 
7 | C=C(C)CC1NC2CC(C)(C)C1c1ccccc12 (racemic) [Compound 8, (±)-(1S,4R,9S)-3,3-Dimethyl-9-(2-methylallyl)-1,2,3,4-tetrahydro-1,4-(epiminomethano)-naphthalene] | inactive | > 100 µM | > 100 µM |  | 
8 | C=C(C)CC1C2c3c(Br)cccc3C(CC2(C)C)N1Cc1ccc2c(c1)OCO2 (racemic) [Compound 11d, (±)-(1S,4R,9S)-10-(Benzo[d][1,3]dioxol-5-ylmethyl)-5-bromo-3,3-dimethyl-9-(2-methylallyl)-1,2,3,4-tetrahydro-1,4-(epiminomethano)naphthalene] | decreased | 40 µM | 88 ± 22 µM |  | 
9 | CC(C)CC1NC2CC(C)(C)C1c1c(Br)cccc12 (racemic) [Compound 13] | retained inhibitory activity | 78 ± 19 µM | 31 ± 3.8 µM |  | 
10 | C=C(C)CC1C2c3c(Br)cccc3C(CC2(C)C)N1CCCCC (racemic) [Compound 11g, (±)-(1S,4R,9S)-5-Bromo-3,3-dimethyl-9-(2-methylallyl-10-pentyl-1,2,3,4-tetrahydro-1,4-(epiminomethano)naphthalene] |  | 20 ± 1.9 µM | 20 ± 4.9 µM | specificity for Nox2 over Nox1, 4, and 5 | 
11 | C=C(C)CC1C2c3c(Br)cccc3C(CC2(C)C)N1Cc1cccc(F)c1 (racemic) [Compound 11f, (±)-(1S,4R,9S)-5-Bromo-10-(3-fluorobenzyl)-3,3-dimethyl-9-(2-methylallyl)-1,2,3,4-tetrahydro-1,4-(epiminomethano)naphthalene] |  | 51 µM | 68 ± 22 µM |  | 
12 | C=C(C)CC1C2c3c(Br)cccc3C(CC2(C)C)N1Cc1ccnc2ccccc12 (racemic) [Compound 11b, (±)-(1S,4R,9S)-5-Bromo-3,3-dimethyl-9-(2-methylallyl)-10-(quinolin-4-ylmethyl)-1,2,3,4-tetra-hydro-1,4-(epiminomethano)naphthalene] | completely abolished | > 100 µM | > 100 µM |  | 
13 | C=C(C)CC1NC2CC(C)(C)C1c1c(Br)cccc12 (racemic) [Compound 7, (±)-(1S,4R,9S)-5-Bromo-3,3-dimethyl-9-(2-methylallyl)-1,2,3,4-tetrahydro-1,4-(epimino-methano)-naphthalene] |  | 40 µM and 25 to 40 µM | 45 µM and 46 µM |  | hit
14 | C=C(C)CC1C2c3c(Br)cccc3C(CC2(C)C)N1Cc1cc(C)on1 (racemic) [Compound 11e, (±)-3-(1S,4R,9S)-5-Bromo-3,3-dimethyl-9-(2-methylallyl)-1,2,3,4-tetrahydro-1,4-(epimino-methano) naphthalen-10-yl)methyl)-5-methylisoxazole] |  | 12 ± 0.5 µM | 48 ± 23 µM |  | 
15 | C=C(C)CC1C2c3c(Br)cccc3C(CC2(C)C)N1Cc1c[nH]c2ccccc12 (racemic) [Compound 11c, (±)-(1S,4R,9S)-10-((1H-Indol-3-yl)methyl)-5-bromo-3,3-dimethyl-9-(2-methylallyl)-1,2,3,4-tetrahydro-1,4-(epiminomethano)naphthalene] | completely abolished | > 100 µM | > 100 µM |  | 
16 | C=C(C)C[C@@H]1N[C@H]2CC(C)(C)[C@@H]1c1c(Br)ccc(Br)c12 [Compound 9] |  | 25 ± 10 µM | 40 ± 2.8 µM |  | active
17 | C=C(C)CC1C2c3c(-c4ccc(Cl)c(Cl)c4)cccc3C(CC2(C)C)N1CCCCC (racemic) [Compound 12c] | inactive | 79 µM | > 100 µM |  | 
